Values of other authors, collected in US7795435B2, “Process for obtaining the polymorphic form I of finasteride” (Ragactives, S.L., priority 2002, dated 2010).

Settings: 25° C., according to EP 0 599 376 B1

Compound | solubility in cyclohexane [mg/g] | solubility in water [mg/g]
CC(C)(C)NC(=O)[C@H]1CC[C@H]2[C@@H]3CC[C@H]4NC(=O)C=C[C@]4(C)[C@H]3CC[C@]12C [Form I of finasteride] | 0.27 ± 0.05 | 0.05 ± 0.02
CC(C)(C)NC(=O)[C@H]1CC[C@H]2[C@@H]3CC[C@H]4NC(=O)C=C[C@]4(C)[C@H]3CC[C@]12C [Form II of finasteride] | 0.42 ± 0.05 | 0.16 ± 0.02
